Experiment [1] deals with GluA2-lacking AMPA receptors (Homo sapiens, UniProt P42261). The following applies: cited from earlier work; for potentiation of CPARs and calcium impermeable AMPA receptors: literature (Sekiguchi 2002; Quirk 2002).
Experiment [2] has as its system SNI-treated rats. The experiment can be described thus: Mechanical hypersensitivity / allodynia (von Frey filaments), SNI model. It is filed as in vivo, rat. The following applies: for sensory hypersensitivity: administered directly into the NAc; for mechanical allodynia: 30 minutes after drug. Here is the method: (§1) To block CPARs locally in the NAc, microcannulas were stereotactically implanted bilaterally into the NAc, a technique well established (Carr, et al., Neuroscience 2010; 165: 1074-86). The NAc has anatomically distinct core and shell regions, both of which are involved in mood regulation. […] Sensory hypersensitivity was measured using von Frey filaments (Wang, et al. Anesthesiology 2011; 115: 812-821), whereas locomotion tests were performed using standard protocols (Carr, et al., Pschopharmacology (Berl) 2009; 201: 495-506).
(§2) The Spared Nerve Injury (SNI) surgery was previously described in detail (Wang et al. Anesthesiology 2011, 115: 812-821). Briefly, under Isoflurane anesthesia (1.5 to 2%), the skin on the lateral surface of the right thigh of rat was incised and a section made through the biceps femoris muscle to expose three branches of the sciatic nerve: sural, common peroneal and tibial nerves. The common peroneal and tibial nerves were tied with non-absorbent 5.0 silk sutures at the point of trifurcation. The nerves were then cut distal to the knot, and about 3 to 5 mm of the distal ends were removed. Muscle layer was then sutured close, while skin was stapled. Staples were removed prior to behavioral testing.
A traditional Dixon up-down method with von Frey filaments was used to measure mechanical allodynia (Wang et al. Anesthesiology 2011, 115: 812-821). In brief, rats were individually placed into plexiglass chambers over a mesh table and acclimated for 20 min before the onset of examination. Beginning with 2.55 g, von Frey filaments in a set with logarithmically incremental stiffness (0.45, 0.75, 1.20, 2.55, 4.40, 6.10, 10.50, 15.10 g) were applied to the lateral ⅓ of right paws (in the distribution of the sural nerve) of animals at least 14 days after SNI surgery, and observers were blinded to the test conditions (CX546 vs. DMSO treatments).

The test system of experiment [3] is SNI-treated rats. In words: Sucrose preference test (depression-like behavior) after intra-NAc administration, SNI model. The experiment is classed as in vivo, rat.
From the text: After SNI, rats develop sensory hypersensitivity, as measured by increased withdrawal response to von Frey filaments (mechanical allodynia) and acetone (cold allodynia) (FIG. 5) (Wang, et al. Anesthesiology 2011; 115: 812-821). The sucrose preference test (SPT) and forced swim test (FST) are used to assess depression. Preference for sucrose over water is a normal hedonic response in rats, whereas a decreased sucrose preference on the SPT represents anhedonia, a typical feature of depression. […] Sham-operated rats only develop depression-like behavior in the immediate postoperative period (FIG. 6C), due to acute incisional pain. These experiments were repeated in the PI model, and sensory and depressive symptoms both develop within 24 hours after paw incision and resolve 7 days later (FIG. 7). Thus, in animal models both acute and chronic postoperative pain cause depressive behavior.
as §1

The subject of experiment [4] is SNI-treated rats. The experiment can be described thus: Cold hypersensitivity / allodynia (acetone), SNI model. It is filed as in vivo, rat. The source says: Briefly, under Isoflurane anesthesia (1.5 to 2%), the skin on the lateral surface of the right thigh of rat was incised and a section made through the biceps femoris muscle to expose three branches of the sciatic nerve: sural, common peroneal and tibial nerves. The common peroneal and tibial nerves were tied with non-absorbent 5.0 silk sutures at the point of trifurcation. The nerves were then cut distal to the knot, and about 3 to 5 mm of the distal ends were removed. Muscle layer was then sutured close, while skin was stapled. Staples were removed prior to behavioral testing.
Animals were individually placed into plexiglass chambers as above and acclimated for 20 min. A drop of acetone was applied to the lateral plantar surface of the paws (in the distribution of the sural nerve). […] 0: no visible response or startle response lasting <0.5 second; 1: paw withdrawal lasting <5 seconds; 2: withdrawal lasting 5 to 10 seconds, +/− licking of the paws; 3: prolonged repetitive withdrawal lasting >10 s. Acetone was applied 5 times to each paw, and an average score was calculated.

Experiment [5] has as its system SNI-treated rats. The experiment can be described thus: Forced swim test, SNI model. The experiment is classed as in vivo, rat. The conditions noted are these: 10 mg/kg intraperitoneal, vs DMSO.
From the text: as §2
On the first session of the test, each animal was placed for fifteen minutes into a standard clear Porsolt chamber with water at 25° C. filled to 25 cm. Afterwards, the animal was taken out of the chamber, dried and put back in its home cage. 24 hours later, the animal was placed into the Porsolt chamber again under the same conditions for 5 min. Both sessions were videotaped, but only the second session was analyzed. Immobility was defined as a lack of movement of the hind paws lasting greater than 1 second. Two independent observers, examined and graded the total time of immobility for each rat, and the average grade was presented for each animal. FST was conducted 14 days after surgeries. […]

For experiment [6] the following is noted: cited from earlier work; for antidepressant effects: literature (Sekiguchi 2002; Quirk 2002); for antidepressant effect on pain-induced depression: SNI model, Wang et al. 2011.
A further experiment deals with GluA1. The conditions noted are these: Li et al. 2010; cited from earlier work.
Experiment [7] concerns SNI-treated rats. The conditions noted are these: Wang et al. 2011; cited from earlier work.
The mark [8] stands for this setting: administered directly into the NAc, SNI-treated rats, vs saline.
[9] abbreviates: 10 mg/kg intraperitoneal, SNI rats, vs DMSO.
The mark [10] stands for this setting: injected into NAc core, SNI-treated rats.

Entries after “also recorded” stand apart in the source; their conditions may differ. Read-outs that look alike come from different tables or passages of the source.

GluA2-lacking AMPA receptors, sequence (P42261 19-906): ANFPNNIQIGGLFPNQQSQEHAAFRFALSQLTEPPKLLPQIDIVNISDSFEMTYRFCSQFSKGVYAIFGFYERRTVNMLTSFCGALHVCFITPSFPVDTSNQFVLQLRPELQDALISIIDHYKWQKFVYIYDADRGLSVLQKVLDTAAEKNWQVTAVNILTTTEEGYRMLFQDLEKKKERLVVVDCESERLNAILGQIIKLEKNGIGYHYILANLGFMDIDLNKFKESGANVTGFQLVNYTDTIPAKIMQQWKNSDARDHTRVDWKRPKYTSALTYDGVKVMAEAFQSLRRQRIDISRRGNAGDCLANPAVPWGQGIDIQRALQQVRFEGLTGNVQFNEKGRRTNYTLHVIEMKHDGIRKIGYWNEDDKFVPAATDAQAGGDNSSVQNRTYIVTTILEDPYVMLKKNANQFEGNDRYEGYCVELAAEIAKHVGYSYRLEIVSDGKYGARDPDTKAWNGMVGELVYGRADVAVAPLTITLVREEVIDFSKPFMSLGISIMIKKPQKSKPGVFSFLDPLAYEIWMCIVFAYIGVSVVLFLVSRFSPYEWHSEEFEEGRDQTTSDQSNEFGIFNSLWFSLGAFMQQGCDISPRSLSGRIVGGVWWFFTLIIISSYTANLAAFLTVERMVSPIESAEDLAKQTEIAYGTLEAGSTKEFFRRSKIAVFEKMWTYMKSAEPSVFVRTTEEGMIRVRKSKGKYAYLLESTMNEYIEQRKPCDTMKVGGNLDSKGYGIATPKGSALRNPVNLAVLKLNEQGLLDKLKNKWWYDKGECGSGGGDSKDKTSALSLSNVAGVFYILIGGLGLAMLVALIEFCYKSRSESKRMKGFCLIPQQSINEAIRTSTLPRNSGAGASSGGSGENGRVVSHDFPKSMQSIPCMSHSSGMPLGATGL

As for `O=C1CCCN1` [2-pyrrolidinone], the “currents of GluA2-lacking AMPA receptors (CPAR currents)” value in experiment [1] (in vitro, Nishizaki et al. 2002) was “specifically increase CPAR currents; also recorded: specifically increase the currents of GluA2-lacking AMPA receptors”. Besides, in the experiment on SNI-treated rats [2] (SNI-treated rats), the sensory hypersensitivity entry was “did not have any effect; also recorded: unaltered”. Moreover, the “sucrose preference (depression-like behavior)” value with SNI-treated rats [3] (setting [8]) is recorded as “increased sucrose; also recorded: return of sucrose preference to near control (painless) levels”.
For the molecule `O=C(c1ccc2c(c1)OCCO2)N1CCCCC1` [CX546], the cold allodynia result in the experiment with SNI-treated rats [4] (setting [9]) is on record as “relieves cold allodynia”. Besides, the analgesic effect result with SNI-treated rats [2] (2.5 mg/kg, SNI rats, vs DMSO) is listed as “does not produce any statistically significant analgesic effect”. The mechanical allodynia result in the experiment with SNI-treated rats [2] (5 mg/kg intraperitoneal, SNI rats, vs DMSO) was “successfully relieves mechanical allodynia; also recorded: relieve mechanical allodynia”; with SNI-treated rats [2] (setting [9]), “successfully relieves mechanical allodynia; also recorded: relieve mechanical allodynia”. For the same molecule, the “immobility on the forced swim test” value in the experiment with SNI-treated rats [5] is reported as “significantly decreases immobility; also recorded: improves performance on the forced swim test”.
Consider `CC(C)S(=O)(=O)NC[C@H](C)c1ccc(-c2ccc(C#N)cc2)cc1` [LY451646], for which the “potentiation of CPARs and calcium impermeable AMPA receptors” value in experiment [1] is “potentiate both CPARs and calcium impermeable AMPA receptors”. Moreover, the antidepressant effects result in experiment [6] is listed as “antidepressant effects”.
For the molecule `NCCCNCCCCNCCCNC(=O)Cc1cccc2ccccc12` [NASPM, 1-naphthyl acetyl spermine], in the experiment with SNI-treated rats [4] (setting [10]), the cold hypersensitivity entry is given as “did not alter”. Besides, the sensory hypersensitivity result with SNI-treated rats [2] (SNI-treated rats) is recorded as “does not alter”. The mechanical hypersensitivity entry in the experiment with SNI-treated rats [2] (setting [10]) was “does not change mechanical hypersensitivity; also recorded: did not alter; also recorded: no effects on mechanical hypersensitivity”. The “sucrose preference (depression-like behavior)” value in the experiment on SNI-treated rats [3] (setting [8]) is “decrease in sucrose preference; also recorded: enhance depression-like behavior; also recorded: significant further decline in their already reduced sucrose preference; also recorded: reduces sucrose preference”; in the experiment on SNI-treated rats [3] (injected into NAc core, sham-treated rats) it was “did not show this depression-like behavioral response”. In the experiment with SNI-treated rats [3] (based on preliminary data, used for power analysis, STD 0.15), the “average difference in sucrose preference between NASPM and saline treatment” value came to 0.2.
Regarding `NC(=O)COc1c(F)cc(SCCNS(=O)(=O)c2ccccc2)cc1F` [PEPA, 4-[2-(phenylsulfonylamino)ethylthio]-2,6-difluorophenoxyacetamide], in experiment [1], the “potentiation of CPARs and calcium impermeable AMPA receptors” value is “potentiate both CPARs and calcium impermeable AMPA receptors”. For the same molecule, in experiment [6], the antidepressant effects entry is listed as “antidepressant effects”.
Take `CNC1(c2ccccc2Cl)CCCCC1=O` (stereo not shown) [ketamine]: in the experiment on GluA1, the GluA1 levels result is reported as “increase GluA1 levels”. Besides, in the experiment with SNI-treated rats [7], the sensory pain relief entry is reported as “without exerting long lasting sensory pain relief”. Besides, the “antidepressant effect on pain-induced depression” value is on record as “antidepressant properties in the SNI model” in experiment [6] and “effectively treat pain-induced depression” in experiment [6] (listed as Ketamine).

Source of the values: patent US10702513B2, “Methods of treating pain and inducing analgesia” (NEW YORK UNIVERSITY, priority 2012, dated 2020).
